≈ marks a conversion by molar mass, not a printed value. Read-outs that look alike come from different tables or passages of the source.
Columns and labels:
ISA virus [1] = assay: Inhibition assay of the replicative cycle of ISAV in SHK-1 cells (real-time RT-PCR of supernatant); type: cell-based, Infectious Salmon Anemia Virus
[2] = system: VHSV virus (Viral Hemorrhagic Septicemia Virus); conditions: cited from earlier work
RNA viruses = conditions: regularly shown, in general; read-out: EC50 values (effective concentration 50%); cited from earlier work
[3] = Toxicity in healthy uninfected smolt fish (tank C2), oral medicated feed; conditions: tank C2, dose of 1600 μg/mL (so in the source), normal 44-64%
IPNV = conditions: cited from earlier work
[4] = patients treated with Rebetol; cited from earlier work
ISA virus [5] = conditions: for hematocrit: untreated infected C3 42.1%
in vitro = conditions: Atlantic salmon
ISA virus [6] = conditions: 400 μg/Kg intraperitoneal

In the case of `CCOC(=O)C1=C[C@@H](OC(CC)CC)[C@H](NC(C)=O)[C@@H](N)C1` [oseltamivir], the “inhibition of the replication of ISA virus” value (ISA virus [1]; concentrations as high as 300 μg/mL, FIG. 1) is reported as “no more than 60%”.
In the case of `NC(=O)c1ncn([C@@H]2O[C@H](CO)[C@@H](O)[C@H]2O)n1` [ribavirin, 1-beta-D-ribofuranosyl-1H-1,2,4-triazole-3-carboxamide], the RNA inhibition ([2]; 25 μg/ml added at 0 hours post infection, at 10 hours post infection) is listed as 99.8%, the “inhibition of the virus” value ([2]; EPC cells, concentrations of 5, 10 and 25 μg/ml) is listed as “strong inhibition” and the EC50 (RNA viruses) is listed as ≥ 1 µM. For the same molecule, the average hematocrit [3] was 54%, the “effect of the higher dose on rate of death” value (IPNV; 400 μg) was “produced no greater decrease in the rate of death” and the “decrease in rate of dead fish” value (IPNV; bath exposure once during two hours, increasing concentrations) was “about 5%”. The EC50 (ISA virus [1]; Infectious salmon anemia virus, 72 h, read-out: concentration which inhibits 50% of ISA virus replication (EC50)) was ~0.4 mg/L (≈ 1.64 µM), the primary toxicity [4] was “triggers hemolytic anemia” and the “viral load in dead fish” value (ISA virus [5]; highest dose (T1) compared with T2 and untreated C3, FIG. 8) was “significantly lower”. For the same molecule, the “viral load in intraperitoneally infected fish” value (ISA virus [5]; highest dose (T1), FIG. 9) was “lower”, the signs at necropsy (ISA virus [5]; infected treated fish of tanks T1 and T2, FIGS. 14 and 15) was “mild inflammatory signs” and the “viral load in intraperitoneally infected fish versus untreated (C3)” value (ISA virus [5]; lowest dose (T2), FIG. 9) was “practically the same”. For the same molecule, the hematocrit (ISA virus [5]; tank T1, dose 800 μg/mL (so in the source)) was ~45%, the hematocrit (ISA virus [5]; tank T2, dose 400 μg/mL (so in the source)) was ~45% and the “viral load versus untreated fish (C3)” value (ISA virus [5]; treated fish T1 (800 μg/kg) and T2 (400 μg/kg), heart, real-time RT-PCR) was “in all cases lower than that of the untreated fish”. The CC50 at 3 days (in vitro) was > 400 mg/L, the “condition of the analyzed organs during necropsies” value (ISA virus [6]) was “slight improvement” and the “viral load over treatment days” value (ISA virus [6]; heart, FIG. 17) was “downward trend”.
In the case of `O=C(O)C1=C[C@@H](O)[C@@H](O)[C@H](O)C1` [shikimic acid], the viral replication inhibition (ISA virus [1]; up to concentrations of 300 μg/ml, FIG. 2) is reported as “no viral replication inhibition”.

From patent US8859513B2, “Use of 1-beta-D-ribofuranosyl-1H-1,2,4-triazole-3-carboxamide for the treatment of infectious salmon anemia” (Laboratorio de Diagnostico Gam, S.A., priority 2010, dated 2014)
